Results: ChEMBL document CHEMBL4152272, “Synthesis and evaluation of novel triazolyl quinoline derivatives as potential antileishmanial agents” (Eur J Med Chem, 2018)
The source made the active and inactive calls. The rule behind the calls is not given here.

System: Leishmania donovani
Experiment: Antileishmanial activity against Leishmania donovani MHOM/IN/80/Dd8 amastigotes harboring luciferase reporter gene infected in mouse J774A.1 cells after 72 hrs by luminescence assay
Type: functional, organism-based
Details: not given

| Molecule | IC50 |
| --- | --- |
| Cc1nc2ccccc2c(-c2ccccc2)c1C(=O)OCc1cn(Cc2ccccc2)nn1 | Not Active |
| Cc1nc2ccc(Cl)cc2c(-c2ccccc2)c1C(=O)OCc1cn(-c2ccc(F)cc2)nn1 | Not Active |
| Cc1nc2ccc(Cl)cc2c(-c2ccccc2)c1C(=O)OCc1cn(Cc2ccccc2F)nn1 | Not Active |
| Cc1nc2ccccc2c(-c2ccccc2)c1C(=O)OCc1cn(-c2ccc(F)cc2)nn1 | Not Active |
| Cc1nc2ccccc2c(-c2ccccc2)c1C(=O)OCc1cn(-c2ccc(C(C)(C)C)cc2)nn1 | Not Active |
| Cc1nc2ccccc2c(-c2ccccc2)c1C(=O)OCc1cn(Cc2ccccc2F)nn1 | Not Active |
| Cc1ccc(Cn2cc(COC(=O)c3c(C)nc4ccc(Cl)cc4c3-c3ccccc3)nn2)cc1 | Not Active |
| Cc1nc2ccc(Cl)cc2c(-c2ccccc2)c1C(=O)OCc1cn(-c2ccc(C(C)(C)C)cc2)nn1 | Not Active |
| Cc1nc2ccc(Cl)cc2c(-c2ccccc2)c1C(=O)OCc1cn(Cc2ccc(F)cc2)nn1 | Not Active |
| Cc1ccc(-n2cc(COC(=O)c3c(C)nc4ccc(Cl)cc4c3-c3ccccc3)nn2)cc1 | Not Active |
| Cc1nc2ccc(Cl)cc2c(-c2ccccc2)c1C(=O)OCc1cn(-c2ccc(C(C)C)cc2)nn1 | Not Active |
| COc1cccc(Cn2cc(COC(=O)c3c(C)nc4ccc(Cl)cc4c3-c3ccccc3)nn2)c1 | Not Active |
| Cc1nc2ccccc2c(-c2ccccc2)c1C(=O)OCc1cn(-c2ccc(C(C)C)cc2)nn1 | Not Active |
| Cc1nc2ccccc2c(-c2ccccc2)c1C(=O)OCc1cn(Cc2ccccc2C#N)nn1 | Not Active |
| CCc1ccc(-n2cc(COC(=O)c3c(C)nc4ccccc4c3-c3ccccc3)nn2)cc1 | Not Active |
| Cc1nc2ccccc2c(-c2ccccc2)c1C(=O)OCc1cn(Cc2ccc(F)cc2)nn1 | Not Active |

Same assay, conditions: Leishmania donovani, MHOM/IN/80/Dd8, J774.A1, 72 h; read-out: IC50

| Molecule | IC50 |
| --- | --- |
| Cc1ccc(-n2cc(COC(=O)c3c(C)nc4ccccc4c3-c3ccccc3)nn2)cc1F | 17 µM |
| Cc1ccc(-n2cc(COC(=O)c3c(C)nc4ccc(Cl)cc4c3-c3ccccc3)nn2)cc1F | 12 µM |
| CCc1ccc(-n2cc(COC(=O)c3c(C)nc4ccc(Cl)cc4c3-c3ccccc3)nn2)cc1 | 14 µM |
| CCCCCCCCCCCCCCCCOP(=O)([O-])OCC[N+](C)(C)C [MILTEFOSINE] | 8 µM |
| Cc1ccc(Cn2cc(COC(=O)c3c(C)nc4ccccc4c3-c3ccccc3)nn2)cc1 | 22 µM |
| Cc1ccc(-n2cc(COC(=O)c3c(C)nc4ccccc4c3-c3ccccc3)nn2)cc1 | 7 µM |
| Cc1nc2ccc(Cl)cc2c(-c2ccccc2)c1C(=O)OCc1cn(Cc2ccc([N+](=O)[O-])cc2)nn1 | 16 µM |
| COc1cccc(Cn2cc(COC(=O)c3c(C)nc4ccccc4c3-c3ccccc3)nn2)c1 | 34 µM |
| Cc1nc2ccc(Cl)cc2c(-c2ccccc2)c1C(=O)OCc1cn(Cc2ccccc2)nn1 | 7 µM |
| Cc1nc2ccccc2c(-c2ccccc2)c1C(=O)OCc1cn(Cc2ccc([N+](=O)[O-])cc2)nn1 | 18 µM |

System: Leishmania donovani
Experiment: Antileishmanial activity against Leishmania donovani MHOM/IN/80/Dd8 amastigotes infected in golden hamsters assessed as inhibition of parasite at 20 mg/kg, ip for 5 consecutive days measured on day 28 post last dose by Giemsa staining based assay relative to control
Type: functional, organism-based
Details: not given

| Molecule | inhibition |
| --- | --- |
| Sodium Stibogluconate | 85.3% |

System: Leishmania donovani
Experiment: Antileishmanial activity against Leishmania donovani MHOM/IN/80/Dd8 amastigotes infected in golden hamsters assessed as inhibition of parasite at 20 mg/kg, ip for 5 consecutive days measured on day 7 post last dose by Giemsa staining based assay relative to control
Type: functional, organism-based
Details: not given

| Molecule | inhibition |
| --- | --- |
| Sodium Stibogluconate | 81.3% |

System: not listed separately
Experiment: Cytotoxicity against mouse J774A.1 cells after 48 hrs by MTT assay
Type: cell-based, J774.A1
Details: not given

| Molecule | CC50 at 48 h |
| --- | --- |
| Cc1ccc(-n2cc(COC(=O)c3c(C)nc4ccccc4c3-c3ccccc3)nn2)cc1F | 36 µM |
| Cc1ccc(-n2cc(COC(=O)c3c(C)nc4ccc(Cl)cc4c3-c3ccccc3)nn2)cc1F | 34 µM |
| CCc1ccc(-n2cc(COC(=O)c3c(C)nc4ccc(Cl)cc4c3-c3ccccc3)nn2)cc1 | 99 µM |
| CCCCCCCCCCCCCCCCOP(=O)([O-])OCC[N+](C)(C)C [MILTEFOSINE] | 56 µM |
| Cc1ccc(Cn2cc(COC(=O)c3c(C)nc4ccccc4c3-c3ccccc3)nn2)cc1 | 41 µM |
| Cc1ccc(-n2cc(COC(=O)c3c(C)nc4ccccc4c3-c3ccccc3)nn2)cc1 | 39 µM |
| Cc1nc2ccc(Cl)cc2c(-c2ccccc2)c1C(=O)OCc1cn(Cc2ccc([N+](=O)[O-])cc2)nn1 | 75 µM |
| COc1cccc(Cn2cc(COC(=O)c3c(C)nc4ccccc4c3-c3ccccc3)nn2)c1 | 36 µM |
| Cc1nc2ccc(Cl)cc2c(-c2ccccc2)c1C(=O)OCc1cn(Cc2ccccc2)nn1 | 35 µM |
| Cc1nc2ccccc2c(-c2ccccc2)c1C(=O)OCc1cn(Cc2ccc([N+](=O)[O-])cc2)nn1 | 42 µM |

System: Leishmania donovani
Experiment: Antileishmanial activity against Leishmania donovani MHOM/IN/80/Dd8 amastigotes infected in golden hamsters assessed as inhibition of parasite at 50 mg/kg, ip for 5 consecutive days measured on day 7 post last dose by Giemsa staining based assay relative to control
Type: functional
Details: not given

| Molecule | inhibition |
| --- | --- |
| Cc1ccc(-n2cc(COC(=O)c3c(C)nc4ccccc4c3-c3ccccc3)nn2)cc1 | inactive |

Same assay, conditions: MHOM/IN/80/Dd8, ip, 168 h

| Molecule | inhibition in vivo at 50 mg/kg |
| --- | --- |
| CCc1ccc(-n2cc(COC(=O)c3c(C)nc4ccc(Cl)cc4c3-c3ccccc3)nn2)cc1 | 9.76% |
| Cc1nc2ccc(Cl)cc2c(-c2ccccc2)c1C(=O)OCc1cn(Cc2ccc([N+](=O)[O-])cc2)nn1 | 6.63% |
| Cc1nc2ccc(Cl)cc2c(-c2ccccc2)c1C(=O)OCc1cn(Cc2ccccc2)nn1 | 37.8% |

System: Leishmania donovani
Experiment: Antileishmanial activity against Leishmania donovani MHOM/IN/80/Dd8 amastigotes infected in golden hamsters assessed as inhibition of parasite at 50 mg/kg, ip for 5 consecutive days measured on day 28 post last dose by Giemsa staining based assay relative to control
Type: functional
Details: MHOM/IN/80/Dd8, ip, 672 h

| Molecule | inhibition in vivo at 50 mg/kg |
| --- | --- |
| CCc1ccc(-n2cc(COC(=O)c3c(C)nc4ccc(Cl)cc4c3-c3ccccc3)nn2)cc1 | 17.3% |
| Cc1ccc(-n2cc(COC(=O)c3c(C)nc4ccccc4c3-c3ccccc3)nn2)cc1 | 40.4% |
| Cc1nc2ccc(Cl)cc2c(-c2ccccc2)c1C(=O)OCc1cn(Cc2ccc([N+](=O)[O-])cc2)nn1 | 22.7% |
| Cc1nc2ccc(Cl)cc2c(-c2ccccc2)c1C(=O)OCc1cn(Cc2ccccc2)nn1 | 46.9% |

System: not listed separately
Experiment: Selectivity index, ratio of CC50 for cytotoxicity against mouse J774A.1 cells to IC50 for Leishmania donovani MHOM/IN/80/Dd8 amastigotes harboring luciferase reporter gene infected in mouse J774A.1 cells
Type: toxicity, cell-based
Details: read-out: Ratio CC50/IC50

| Molecule | selectivity ratio |
| --- | --- |
| Cc1ccc(-n2cc(COC(=O)c3c(C)nc4ccccc4c3-c3ccccc3)nn2)cc1F | 2.12 |
| Cc1ccc(-n2cc(COC(=O)c3c(C)nc4ccc(Cl)cc4c3-c3ccccc3)nn2)cc1F | 2.9 |
| CCc1ccc(-n2cc(COC(=O)c3c(C)nc4ccc(Cl)cc4c3-c3ccccc3)nn2)cc1 | 7 |
| CCCCCCCCCCCCCCCCOP(=O)([O-])OCC[N+](C)(C)C [MILTEFOSINE] | 6.72 |
| Cc1ccc(Cn2cc(COC(=O)c3c(C)nc4ccccc4c3-c3ccccc3)nn2)cc1 | 1.81 |
| Cc1ccc(-n2cc(COC(=O)c3c(C)nc4ccccc4c3-c3ccccc3)nn2)cc1 | 5.58 |
| Cc1nc2ccc(Cl)cc2c(-c2ccccc2)c1C(=O)OCc1cn(Cc2ccc([N+](=O)[O-])cc2)nn1 | 4.6 |
| COc1cccc(Cn2cc(COC(=O)c3c(C)nc4ccccc4c3-c3ccccc3)nn2)c1 | 1 |
| Cc1nc2ccc(Cl)cc2c(-c2ccccc2)c1C(=O)OCc1cn(Cc2ccccc2)nn1 | 4.5 |
| Cc1nc2ccccc2c(-c2ccccc2)c1C(=O)OCc1cn(Cc2ccc([N+](=O)[O-])cc2)nn1 | 2.3 |

System: Leishmania donovani
Experiment: Antileishmanial activity against Leishmania donovani MHOM/IN/80/Dd8 promastigotes harboring luciferase reporter gene after 72 hrs by luminescence assay
Type: functional, organism-based
Details: MHOM/IN/80/Dd8, 72 h

| Molecule | IC50 |
| --- | --- |
| Cc1nc2ccccc2c(-c2ccccc2)c1C(=O)OCc1cn(Cc2ccccc2)nn1 | 10 µM |
| Cc1ccc(-n2cc(COC(=O)c3c(C)nc4ccccc4c3-c3ccccc3)nn2)cc1F | 6 µM |
| Cc1nc2ccc(Cl)cc2c(-c2ccccc2)c1C(=O)OCc1cn(-c2ccc(F)cc2)nn1 | 17 µM |
| Cc1ccc(-n2cc(COC(=O)c3c(C)nc4ccc(Cl)cc4c3-c3ccccc3)nn2)cc1F | 4 µM |
| CCc1ccc(-n2cc(COC(=O)c3c(C)nc4ccc(Cl)cc4c3-c3ccccc3)nn2)cc1 | 5 µM |
| Cc1nc2ccc(Cl)cc2c(-c2ccccc2)c1C(=O)OCc1cn(Cc2ccccc2F)nn1 | 24 µM |
| CCCCCCCCCCCCCCCCOP(=O)([O-])OCC[N+](C)(C)C [MILTEFOSINE] | 1 µM |
| Cc1ccc(Cn2cc(COC(=O)c3c(C)nc4ccccc4c3-c3ccccc3)nn2)cc1 | 4 µM |
| Cc1nc2ccccc2c(-c2ccccc2)c1C(=O)OCc1cn(-c2ccc(F)cc2)nn1 | 22 µM |
| Cc1nc2ccccc2c(-c2ccccc2)c1C(=O)OCc1cn(-c2ccc(C(C)(C)C)cc2)nn1 | 7 µM |
| Cc1nc2ccccc2c(-c2ccccc2)c1C(=O)OCc1cn(Cc2ccccc2F)nn1 | 4 µM |
| Cc1ccc(-n2cc(COC(=O)c3c(C)nc4ccccc4c3-c3ccccc3)nn2)cc1 | 16 µM |
| Cc1ccc(Cn2cc(COC(=O)c3c(C)nc4ccc(Cl)cc4c3-c3ccccc3)nn2)cc1 | 34 µM |
| Cc1nc2ccc(Cl)cc2c(-c2ccccc2)c1C(=O)OCc1cn(-c2ccc(C(C)(C)C)cc2)nn1 | 45 µM |
| Cc1nc2ccc(Cl)cc2c(-c2ccccc2)c1C(=O)OCc1cn(Cc2ccc([N+](=O)[O-])cc2)nn1 | 5 µM |
| COc1cccc(Cn2cc(COC(=O)c3c(C)nc4ccccc4c3-c3ccccc3)nn2)c1 | 16 µM |
| Cc1nc2ccc(Cl)cc2c(-c2ccccc2)c1C(=O)OCc1cn(Cc2ccc(F)cc2)nn1 | 2 µM |
| Cc1ccc(-n2cc(COC(=O)c3c(C)nc4ccc(Cl)cc4c3-c3ccccc3)nn2)cc1 | 10 µM |
| Cc1nc2ccc(Cl)cc2c(-c2ccccc2)c1C(=O)OCc1cn(-c2ccc(C(C)C)cc2)nn1 | 3 µM |
| Cc1nc2ccc(Cl)cc2c(-c2ccccc2)c1C(=O)OCc1cn(Cc2ccccc2)nn1 | 25 µM |
| COc1cccc(Cn2cc(COC(=O)c3c(C)nc4ccc(Cl)cc4c3-c3ccccc3)nn2)c1 | 7 µM |
| Cc1nc2ccccc2c(-c2ccccc2)c1C(=O)OCc1cn(Cc2ccc([N+](=O)[O-])cc2)nn1 | 9 µM |
| Cc1nc2ccccc2c(-c2ccccc2)c1C(=O)OCc1cn(-c2ccc(C(C)C)cc2)nn1 | 5 µM |
| Cc1nc2ccccc2c(-c2ccccc2)c1C(=O)OCc1cn(Cc2ccccc2C#N)nn1 | 10 µM |
| CCc1ccc(-n2cc(COC(=O)c3c(C)nc4ccccc4c3-c3ccccc3)nn2)cc1 | 8 µM |
| Cc1nc2ccccc2c(-c2ccccc2)c1C(=O)OCc1cn(Cc2ccc(F)cc2)nn1 | 6 µM |
